Here are results for three compounds from ChEMBL document CHEMBL2331190, “Synthesis of 1,4-bis(indolin-1-ylmethyl)benzene derivatives and their structure-activity relationships for the interaction of human carbonic anhydrase isoforms I and II” (Bioorg Med Chem, 2013).

One assay has as its target Carbonic anhydrase 2 (Homo sapiens, UniProt P00918). Kind of assay: Inhibition of human carbonic anhydrase 2 using 4-nitrophenylacetate as substrate after 3 mins by spectrophotometric analysis.
A further assay addresses Carbonic anhydrase 1 (Homo sapiens, UniProt P00915). Kind of assay: Inhibition of human carbonic anhydrase 1 using 4-nitrophenylacetate as substrate after 3 mins by spectrophotometric analysis.

Sequence of Carbonic anhydrase 1 (P00915 whole entry): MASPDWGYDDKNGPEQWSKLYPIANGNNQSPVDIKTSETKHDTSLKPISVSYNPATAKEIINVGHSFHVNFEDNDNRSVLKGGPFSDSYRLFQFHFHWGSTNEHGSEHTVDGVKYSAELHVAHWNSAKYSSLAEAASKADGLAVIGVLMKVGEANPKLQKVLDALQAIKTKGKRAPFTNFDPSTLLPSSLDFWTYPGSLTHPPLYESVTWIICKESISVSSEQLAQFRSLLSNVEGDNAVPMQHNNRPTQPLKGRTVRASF

In the case of `c1ccc2c(c1)c1c(n2Cc2ccc(Cn3c4c(c5ccccc53)CCC4)cc2)CCC1`, the Ki (commonly a measure of affinity in units of concentration, obtained from inhibition or displacement) on Carbonic anhydrase 2 was found to be 0.17 µM; at Carbonic anhydrase 1, 42.6 µM.

In the case of `c1ccc2c(c1)c1c(n2Cc2ccc(Cn3c4c(c5ccccc53)CCCC4)cc2)CCCC1`, the inhibitory constant (Ki) on Carbonic anhydrase 2 amounted to 0.25 µM; on Carbonic anhydrase 1 it was 39.3 µM.

Regarding `c1ccc2c(c1)c1c(n2Cc2ccc(Cn3c4c(c5ccccc53)CCCCC4)cc2)CCCCC1`, the figures for the Ki at Carbonic anhydrase 2 and at Carbonic anhydrase 1 were 0.29 µM and 41.7 µM, respectively.
